We go through 56 compounds from patent publication US6638953B2, “Indole derivatives as 5-HT receptor antagonist” (SmithKline Beecham p.l.c., priority 1995, dated 2003).

Structures can show the parent of a compound that is named as a salt.

Broadly, the melting point is the temperature, or range, at which the solid turns liquid. `CSc1cc2c(cc1C(F)(F)F)N(C(=O)Nc1ccc(Oc3ccc(C)nc3)nc1)CC2` [Example 66, 5-Methylthio-6-trifluoromethyl-1-[6-(6-methylpyridin-3-yloxy)pyridin-3-ylcarbamoyl]indoline] had a melting point of 206 to 208 °C. The compound `COc1cc2c(cc1C(F)(F)F)N(C(=O)Nc1ccc3c(ccn3-c3ccncc3)c1)CC2` [Example 59, 1-(1-(4-Pyridyl)-5-indolylcarbamoyl)-5-methoxy-6-trifluoromethylindoline] had a melting point of 206 to 211 °C. The figure for `COc1cc2c(cc1C(F)(F)F)N(C(=O)Nc1cc(Cl)cc(-c3cccnc3)c1)CC2` [Example 106] is 183 to 185 °C.

On to `Cc1cc2c(cc1Cl)N(C(=O)Nc1ccc(F)c(-c3cccnc3)c1)CC2` [Example 136], for which the melting point fell in the range of 185 to 186 °C. Regarding `COc1cc2c(cc1C(F)(F)F)N(C(=O)Nc1ccnc(Oc3cccnc3)c1)CC2` [Example 64], the melting point was 223 to 225 °C. To `COc1cc2c(cc1C(F)(F)F)N(C(=O)Nc1cccc(-c3ccc[nH]3)c1)CC2` [Example 102] belongs > 240 °C; to `O=C(Nc1cc(F)cc(-c2cncnc2)c1)N1CCc2cc(Cl)c(Cl)cc21` [Example 170], 260 °C. The figure for `COc1cc2c(cc1C(F)(F)F)N(C(=O)Nc1ccc(Oc3ccc(F)cc3C)nc1)CC2` [Example 159] is 208 to 209 °C; for `COc1cc2c(cc1C(F)(F)F)N(C(=O)Nc1ccc(Oc3ccccc3)nc1)CC2` [Example 155] it is 202 to 203 °C; for `COc1cc2c(cc1C(F)(F)F)N(C(=O)Nc1cccc(-c3ccc(C)nn3)c1)CC2` [Example 121] it is 229 to 231 °C. The figure for `Cc1ncccc1Oc1ccc(NC(=O)N2CCc3cc(Br)c(C(F)(F)F)cc32)cn1` is 211 to 213 °C. As to `COc1cc2c(cc1C(F)(F)F)N(C(=O)Nc1cncc(-c3cncnc3)c1)CC2` [Example 130], the melting point lay in the range of 120 to 121 °C. To `COc1cc2c(cc1C(F)(F)F)N(C(=O)Nc1cncc(-c3ccsc3)c1)CC2` [Example 16, 1-[5-(3-Thienyl)-pyrid-3-yl Carbamoyl]-5-methoxy-6-trifluoromethyl Indoline] belongs 165 to 167 °C. To `COc1cc2c(cc1C(F)(F)F)N(C(=O)Nc1cncc(-c3ccccc3C)c1)CC2` [Example 90] belongs 103 to 105 °C; to `COc1cc2c(cc1C(F)(F)F)N(C(=O)Nc1ccc(-c3cccnc3)nc1)CC2` [Example 36, 1-[6-(3-Pyridyl)-pyrid-3-ylcarbamoyl]-5-methoxy-6-trifluoromethylindoline], > 270 °C; to `COc1cc2c(cc1C(F)(F)F)N(C(=O)Nc1cc(F)cc(-c3cnccn3)c1)CC2` [Example 126], 230 to 231 °C.

Take `Cc1cc2c(cc1Cl)N(C(=O)Nc1cc(F)c(C)c(-c3cccnc3)c1)CC2` [Example 129]: the melting point fell in the range of 233 to 235 °C. To `COc1cc2c(cc1C(F)(F)F)N(C(=O)Nc1ccc(Oc3cccnc3)cc1)CC2` [Example 143] belongs 193 to 194 °C; to `COc1cc2c(cc1C(F)(F)F)N(C(=O)Nc1cc(F)cc(-c3cccnc3C)c1)CC2` [Example 125], 204 to 205 °C. The figure for `COc1cc2c(cc1C(F)(F)F)N(C(=O)Nc1cncc(-c3cccnc3)c1)CC2` [Example 12, 1-[5-(3-Pyridyl)-pyrid-3-yl Carbamoyl]-5-methoxy-6-trifluoromethyl Indoline] is 113 to 114 °C; for `CSc1cc2c(cc1C(F)(F)F)N(C(=O)Nc1cncc(-c3ccccc3)c1)CC2` [Example 11, 1-(5-Phenyl Pyrid-3-yl Carbamoyl)-5-methylthio-6-trifluoromethyl Indoline] it is 208 to 214 °C; for `COc1cc2c(cc1C(F)(F)F)N(C(=O)Nc1ccc(-c3cccnc3)cc1)CC2` [Example 4, 1-[(3-Pyridyl)-4-phenyl Carbamoyl]-5-methoxy-6-trifluoromethylindoline] it is > 230 °C. With `CSc1cc2c(cc1C(F)(F)F)N(C(=O)Nc1ccc(Cc3ccncc3)cc1)CC2` [Example 147], the melting point was in the range of 206 to 209 °C. To `COc1cc2c(cc1C(F)(F)F)N(C(=O)Nc1ccc(Oc3ccccc3C(F)(F)F)nc1)CC2` [Example 164] belongs 237 to 238 °C. To `COc1cc2c(cc1C(F)(F)F)N(C(=O)Nc1ccc(C)c(-c3cnccc3C)c1)CC2` [Example 109] belongs 153 to 155 °C; to `COc1cc2c(cc1C(F)(F)F)N(C(=O)Nc1cccc(-c3cccnc3)c1Cl)CC2` [Example 85], 214 to 216 °C. In turn, `COc1cc2c(cc1C(F)(F)F)N(C(=O)Nc1cc(OC(F)(F)F)cc(-c3cccnc3)c1)CC2` [Example 122] yielded a melting point of 168 to 170 °C. Turning to `COc1cc2c(cc1C(F)(F)F)N(C(=O)Nc1cc(F)c(C)c(-c3cccnc3)c1)CC2` [Example 124], the melting point was in the range of 244 to 247 °C. The compound `COc1cc2c(cc1C(F)(F)F)N(C(=O)Nc1cccc(-c3c(C)ccnc3C)c1)CC2` [Example 111] came in with a melting point of 202 to 204 °C.

`C=Cc1cc(NC(=O)N2CCc3cc(OC)c(C(F)(F)F)cc32)cc(-c2cccnc2)c1` [Example 104]: the melting point was in the range of 138 to 140 °C.

Regarding `COc1cc2c(cc1C(F)(F)F)N(C(=O)Nc1ccc(OC(F)(F)F)c(-c3cccnc3)c1)CC2` [Example 123], the melting point is 99 to 100 °C. To `COc1cc2c(cc1C(F)(F)F)N(C(=O)Nc1cncc(-c3ccc(F)cc3)c1)CC2` [Example 87] belongs > 200 °C; to `Cc1cc2c(cc1Cl)N(C(=O)Nc1cc(F)cc(-c3cnccn3)c1)CC2` [Example 131], 226 to 227 °C; to `COc1cc2c(cc1C(F)(F)F)N(C(=O)Nc1cc(-c3cccnc3)c(OC)c(C(F)(F)F)c1)CC2` [Example 108], 180 to 181 °C. `O=C(Nc1cc(F)cc(-c2cncnc2)c1)N1CCc2cc(Br)c(C(F)(F)F)cc21` [Example 172]: the melting point lay in the range of 214 to 218 °C. As to `COc1cc2c(cc1C(F)(F)F)N(C(=O)Nc1ccc(OCc3cccnc3)cc1)CC2` [Example 138], the melting point is 215 to 217 °C. The figure for `CSc1cc2c(cc1C(F)(F)F)N(C(=O)Nc1cc(F)cc(-c3cccnc3)c1)CC2` (as salt: hydrochloride) [Example 25, 1-(3-Fluoro-5-(pyrid-3-yl)phenylcarbamoyl)5-thiomethyl-6-trifluoromethyl-indoline Hydrochloride] is 202 to 203 °C; for `COc1cc2c(cc1C(F)(F)F)N(C(=O)Nc1ccc(SCc3ccncc3)cc1)CC2` [Example 62, 5-Methoxy-6-trifluoromethyl-1-[4-(pyridin-4-ylmethylthio)phenyl Carbamoyl]indoline] it is 160 to 163 °C; for `COc1cc2c(cc1C(F)(F)F)N(C(=O)Nc1cncc(-c3ccccc3CO)c1)CC2` [Example 92] it is 190 to 192 °C. The figure for `COc1cc2c(cc1C(F)(F)F)N(C(=O)Nc1ccc3c(ccn3-c3cccnc3)c1)CC2` [Example 73, 1-(1-(3-Pyridyl)-5-indolylcarbamoyl)-5-methoxy-6-trifluoromethyl Indoline] is 202 to 204 °C. For `COc1cc2c(cc1C(F)(F)F)N(C(=O)Nc1cccc(-c3cccc(CN(C)C)c3)c1)CC2` [Example 99], the melting point lay in the range of 185 to 187 °C.

As for `COc1cc2c(cc1C(F)(F)F)N(C(=O)Nc1cncc(-c3ccncc3)c1)CC2` [Example 18, 1-[5-(4-Pyridyl)-pyrid-3-yl Carbamoyl]-5-methoxy-6-trifluoromethyl Indoline], the melting point lay in the range of 230 to 234 °C. To `COc1cc2c(cc1C(F)(F)F)N(C(=O)Nc1cccc(-c3cccnc3C)c1)CC2` [Example 110] belongs 179 to 180 °C. On to `COc1cc2c(cc1C(F)(F)F)N(C(=O)Nc1cncc(-c3ccccc3C=O)c1)CC2` [Example 91], for which the melting point is 114 to 116 °C. The figure for `COc1cc2c(cc1C(F)(F)F)N(C(=O)Nc1ccc(Oc3cccc(C#N)c3)nc1)CC2` [Example 175] is 136 to 138 °C; for `COc1cc2c(cc1C(F)(F)F)N(C(=O)Nc1ccc(Oc3cccc(C(F)(F)F)c3)nc1)CC2` [Example 165] it is 193 to 194 °C; for `COc1cc2c(cc1C(F)(F)F)N(C(=O)Nc1cccc(-c3cnc4ccccc4c3)c1)CC2` [Example 86] it is 240 °C (dec.). The figure for `COc1cc2c(cc1C(F)(F)F)N(C(=O)Nc1cccc(COc3cccnc3)c1)CC2` [Example 139] is 188 to 190 °C.

For `O=C(Nc1ccc(F)c(-c2cccnc2)c1)N1CCc2cc(Br)c(C(F)(F)F)cc21` [Example 174], the melting point fell in the range of 200 to 201 °C. To `O=C(Nc1ccc(F)c(-c2cncnc2)c1)N1CCc2cc(Cl)c(Cl)cc21` [Example 169] belongs 132 to 135 °C; to `COc1cc2c(cc1C(F)(F)F)N(C(=O)Nc1cncc(-c3ccc(C(F)(F)F)cc3)c1)CC2` [Example 13, 1-[5-(4-Trifluoromethylphenyl)-pyrid-3-yl Carbamoyl]-5-methoxy-6-trifluoromethyl Indoline], 199 to 202 °C. Take `COc1cc2c(cc1C(F)(F)F)N(C(=O)Nc1ccc(Oc3ccc(C(N)=O)cc3)nc1)CC2` [Example 163]: the melting point is 245 to 248 °C.

As to `COc1cc2c(cc1C(F)(F)F)N(C(=O)Nc1ccc(CSc3ccncc3)cc1)CC2` [Example 60, 5-Methoxy-6-trifluoromethyl-1-[4-(pyridin-4-ylthiomethyl)phenyl Carbamoyl]indoline], the melting point was in the range of 174 to 175 °C. The figure for `COc1cc2c(cc1C(F)(F)F)N(C(=O)Nc1ccc(-c3ccccc3)nc1)CC2` [Example 94] is 204 to 207 °C. On to `Cc1cc2c(cc1Cl)N(C(=O)Nc1cc(F)cc(-c3cccnc3C)c1)CC2` [Example 134], for which the melting point was 205 to 206 °C. To `CSc1cc2c(cc1C(F)(F)F)N(C(=O)Nc1cccc(C(O)CCc3ccccn3)c1)CC2` (centres unmarked) [Example 150] belongs 78 to 80 °C.
